According to US4255575A, “2-Hydroxy-5-(1-hydroxy-2-piperazinylethyl)-benzoic acid derivatives” (priority 1979, dated 1981):

Legend:
α-adrenergic receptor [1] = experiment: α-adrenergic receptor blocking activity in vitro, isolated rabbit aortic strip, norepinephrine agonist; format: cell-based
Protocol: (§1) α-Adrenergic receptor blocking activity is determined in vitro by performing cumulative dose-response experiments in the isolated rabbit aortic strip preparation using norepinephrine as the agonist. The contractile response of the rabbit strip preparation in the presence of logarithmically increasing concentrations of the compounds being tested are expressed as percent of the maximal attainable […]. Relative antagonistic potency is expressed as a pA2 value.

β-adrenergic receptor = target: T1, β-adrenergic receptor (Cavia porcellus, UniProt H0W3H1); experiment: β-adrenergic receptor blocking activity in vitro, isolated guinea pig atria, isoproterenol agonist; format: cell-based; settings: for Kb: read-out: pA2 β (converted)
T1 construct: isolated guinea pig atria preparation; from tissue; host or cells: isolated guinea pig atria
T1 sequence (H0W3H1 1-470): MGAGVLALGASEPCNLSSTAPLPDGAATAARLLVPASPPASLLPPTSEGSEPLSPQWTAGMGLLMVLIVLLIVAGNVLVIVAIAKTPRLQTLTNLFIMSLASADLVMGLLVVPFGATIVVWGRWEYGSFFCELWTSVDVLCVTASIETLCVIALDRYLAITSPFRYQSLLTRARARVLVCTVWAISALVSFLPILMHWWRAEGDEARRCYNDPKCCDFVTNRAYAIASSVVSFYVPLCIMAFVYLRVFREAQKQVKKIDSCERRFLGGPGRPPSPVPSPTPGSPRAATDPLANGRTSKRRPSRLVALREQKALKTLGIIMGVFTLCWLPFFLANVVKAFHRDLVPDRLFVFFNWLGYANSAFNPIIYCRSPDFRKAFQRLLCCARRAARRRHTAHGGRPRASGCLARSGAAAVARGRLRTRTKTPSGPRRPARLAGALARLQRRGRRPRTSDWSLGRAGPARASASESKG
Protocol: as §1
β-Adrenergic receptor blocking activity is determined in vitro by performing cumulative dose-response experiments in the isolated guinea pig atria preparation using isoproterenol as the agonist. The response (increase in rate) of the guinea pig atria preparation in the presence of logarithmically increasing concentrations of the compounds being tested are expressed as percent of the maximal attainable response. Relative antagonistic potency is expressed as a pA2 value, as defined above.

guinea pig ileum = experiment: direct spasmolytic activity in vitro, isolated guinea pig ileum, barium chloride agonist; format: cell-based
Protocol: as §1, with “value. […] Direct spasmolytic activity is determined in vitro by performing cumulative dose response experiments in the isolated guinea pig ileum preparation using barium chloride as the agonist. The contractile response of the guinea pig ileum preparation in the presence of logarithmically increasing concentrations of the compounds being tested are expressed as percent of the maximal attainable response. Relative antagonistic potency is expressed as a pA2 value, as defined above.” for “value.”

α-adrenergic receptor [2] = experiment: α-adrenergic receptor blocking activity in vivo, anesthetized dog, phenylephrine agonist; settings: iv
Protocol: (§2) α-Adrenergic receptor blocking activity is determined in vivo by performing cumulative dose-response experiments in the anesthetized dog using phenylephrine as the agonist. The increase in diastolic blood pressure produced by phenylephrine is determined in the absence and again in the presence of logarithmically increasing doses of the test compound. Relative antagonistic potency is expressed as DR10. DR10 is defined as the negative logarithm of the dose of the antagonist which increased by 10 times the dose of agonist necessary to produce 50% of the maximal attainable response.

[3] = test system: β-adrenergic receptor (β1); experiment: β-adrenergic receptor blocking activity in vivo, isoproterenol agonist, increase in cardiac rate (β1); settings: anesthetized dog, iv
Protocol: as §2, with “response. […] Two responses, increase in cardiac rate (β1) and decrease in diastolic blood pressure (β2) are measured.” for “response.”

[4] = test system: β-adrenergic receptor (β2); experiment: β-adrenergic receptor blocking activity in vivo, isoproterenol agonist, decrease in diastolic blood pressure (β2); settings: anesthetized dog, iv
Protocol: as §2, with “response. […] Two responses, increase in cardiac rate (β1) and decrease in diastolic blood pressure (β2) are measured.” for “response.”

[5] = test system: spontaneously hypertensive rats (SHR); experiment: antihypertensive activity in spontaneously hypertensive rats, systolic blood pressure; format: in vivo, rat; settings: 50 mg/kg per os
Protocol: Antihypertensive activity is determined in spontaneously hypertensive rats (SHR) of the Okomoto-Aoki strain. Systolic blood pressure of the SHR is measured from the caudal artery by means of an indirect method utilizing a photocell transducer/tail cuff occluder system. Time response relationships are determined for each compound following an oral dose of 50 mg/kg. Data are expressed as mm of Hg decrease from control values. Statistical significance is determined using a 2 tailed "t" test comparing drug treatment response values to those obtained from concurrent vehicle treated animals.

Compound | Kb (β-adrenergic receptor) [nM] | pA2 β (β-adrenergic receptor) | pA2 α (α-adrenergic receptor [1]) | pA2 BaCl2 (guinea pig ileum) | DR10 (α) (α-adrenergic receptor [2]) [mg/kg iv] | DR10 (β1), increase in cardiac rate [3] [mg/kg iv] | DR10 (β2), decrease in diastolic blood pressure [4] [mg/kg iv] | Fall in Blood Pressure After: 1 hour [5] [mm Hg] | Fall in Blood Pressure After: 4 hours [5] [mm Hg]
CNC(=O)c1cc(C(O)CN2CCN(c3ccccc3OC)CC2)ccc1O.Cl.O (stereo not drawn) [Compound 10, 2-hydroxy-5-[1-hydroxy-2-[4-(2-methoxyphenyl)-1-piperazinyl]ethyl]-N-methylbenzamide monohydrochloride monohydrate] | – | stimulant | 7.95 | 5.02 | – | – | – | 44 | 52
COC(=O)c1cc(C(O)CN2CCN(c3ccccc3C)CC2)ccc1O.Cl (stereo not drawn) [Compound 1, methyl 2-hydroxy-5-[1-hydroxy-2-[4-(2-methylphenyl)-1-piperazinyl]ethyl]benzoate hydrochloride] | 162 | – | 7.45 | 6.06 | – | – | – | – | –
Cc1ccc(N(CC2=NCCN2)c2cccc(O)c2)cc1 [phentolamine, reference compound] | – | – | – | – | 2.65 | – | – | – | –
COc1ccc(C(O)CN2CCN(c3ccccc3)CC2)cc1C(N)=O.Cl (stereo not drawn) [Compound 12, 5-[1-hydroxy-2-(4-phenyl-1-piperazinyl)ethyl]-2-methoxybenzamide monohydrochloride] | > 10000 | – | 6.54 | 4.19 | – | – | – | 33 | 25
Cl.NC(=O)c1cc(C(O)CN2CCN(c3cccc(C(F)(F)F)c3)CC2)ccc1O (stereo not drawn) [Compound 3, 2-hydroxy-5-[1-hydroxy-2-[4-[3-(trifluoromethyl)phenyl]-1-piperazinyl]ethyl]benzamide monohydrochloride] | 126 | – | 6.33 | 5.74 | – | – | – | – | –
CNC(=O)c1cc(C(O)CN2CCN(c3ccc(OC)cc3)CC2)ccc1O.Cl.O (stereo not drawn) [Compound 9, 2-hydroxy-5-[1-hydroxy-2-[4-(4-methoxyphenyl)-1-piperazinyl]ethyl]-N-methylbenzamide monohydrochloride hydrate] | 6760 | – | 5.47 | 4.82 | – | – | – | – | –
CC(CCc1ccccc1)NC(C)C(O)c1ccc(O)cc1 (stereo not drawn) [nylidrine, reference compound] | – | stimulant | – | – | – | – | – | – | –
Cc1ccccc1N1CCN(CC(O)c2ccc(O)c(C(=O)NCC(C)(C)C)c2)CC1.Cl (stereo not drawn) [Compound 11, N-(2,2-dimethylpropyl)-2-hydroxy-5-[1-hydroxy-2-[4-(2-methylphenyl)-1-piperazinyl]ethyl]benzamide monohydrochloride] | 468 | – | 7.21 | 6.65 | – | – | – | 41 | 32
CCOc1ccc(C(O)CN2CCN(c3ccccc3)CC2)cc1C(N)=O.Cl (stereo not drawn) [Compound 13, 2-ethoxy-5-[1-hydroxy-2-(4-phenyl-1-piperazinyl)ethyl]benzamide monohydrochloride] | 5370 | – | 6.27 | 4.67 | – | – | – | – | –
Cc1ccccc1N1CCN(CC(O)c2ccc(O)c(-c3nnn[nH]3)c2)CC1.Cl.O (stereo not drawn) [Compound 14, α-(4-Hydroxy-3-1H-tetrazol-5-ylphenyl)-4-(2-methylphenyl)-1-piperazineethanol Monohydrochloride Monohydrate] | 724 | – | 7.56 | < 4 | – | – | – | 48 | –

More lines, main results first:

Kb (β-adrenergic receptor) [nM] | pA2 β (β-adrenergic receptor) | Compound | pA2 α (α-adrenergic receptor [1]) | pA2 BaCl2 (guinea pig ileum) | DR10 (α) (α-adrenergic receptor [2]) [mg/kg iv] | DR10 (β1), increase in cardiac rate [3] [mg/kg iv] | DR10 (β2), decrease in diastolic blood pressure [4] [mg/kg iv] | Fall in Blood Pressure After: 1 hour [5] [mm Hg] | Fall in Blood Pressure After: 4 hours [5] [mm Hg]
4270 | – | Cl.NC(=O)c1cc(C(O)CN2CCN(c3ccccn3)CC2)ccc1O.O (stereo not drawn) [Compound 8, 2-hydroxy-5-[1-hydroxy-2-[4-(2-pyridinyl)-1-piperazinyl]ethyl]benzamide monohydrochloride hydrate] | 6.08 | 3.90 | – | – | – | – | –
– | stimulant | Cl.NC(=O)c1cc(C(O)CN2CCN(c3ccccc3)CC2)ccc1O.O (stereo not drawn) [Compound 6, 2-hydroxy-5-[1-hydroxy-2-(4-phenyl-1-piperazinyl)ethyl]benzamide monohydrochloride hydrate] | 7.04 | 4.19 | – | – | – | – | –
200 | – | Cc1ccccc1N1CCN(CC(O)c2ccc(O)c(C(N)=O)c2)CC1.Cl (stereo not drawn) [Compound 2, 2-hydroxy-5-[1-hydroxy-2-[4-(2-methylphenyl)-1-piperazinyl]ethyl]benzamide monohydrochloride] | 7.57 | 5.73 | 1.09 | 15.3 | > 10 | 48 | 37
1450 | – | COc1ccc(N2CCN(CC(O)c3ccc(O)c(C(N)=O)c3)CC2)cc1.Cl.Cl (stereo not drawn) [Compound 4, 2-hydroxy-5-[1-hydroxy-2-[4-(4-methoxyphenyl)-1-piperazinyl]ethyl]benzamide dihydrochloride] | 6.13 | < 4.28 | – | – | – | – | –
363 | – | COc1ccccc1N1CCN(CC(O)c2ccc(O)c(C(N)=O)c2)CC1.Cl (stereo not drawn) [Compound 7, 2-hydroxy-5-[1-hydroxy-2-[4-(2-methoxyphenyl)-1-piperazinyl]ethyl]benzamide monohydrochloride] | 7.42 | 4.87 | – | – | – | 45 | 35
676 | – | Cl.NC(=O)c1cc(C(O)CN2CCN(c3ccc(Cl)cc3)CC2)ccc1O.O (stereo not drawn) [Compound 5, 5-[2-[4-(4-chlorophenyl)-1-piperazinyl]-1-hydroxyethyl]-2-hydroxybenzamide monohydrochloride, monohydrate] | 6.87 | 4.58 | – | – | – | 49 | 56
